Several values for one entry are separate records, joined by “and”; a condition that tells them apart may be missing. Identical values can stand only once. Where a SMILES comes first, the peptide text is derived from it. The star is where a group is joined. Cbz = O=C(OCc1ccccc1)*
test system: M. tuberculosis H37Rv growth inhibition, glycerol-free medium; test: Mycobacterium tuberculosis H37Rv growth inhibition, glycerol free medium, confirmatory screen (AID 504645); conditions: not given;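 further: bacteria grown one week before the viability dye was added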

Compound	IC50
O=C(NCCc1ccc(Cl)cc1)c1ccc(CNc2c(N3CCOCC3)c(=O)c2=O)cc1	5060 nM
Cc1ccc2ccc3ccc(C)nc3c2n1	530 nM
CC[N+](C)(CC)CCCCOc1ccc2c(c1)C(=O)c1cc(OCCCC[N+](C)(CC)CC)ccc1-2	1320 nM
COc1ccc(N2CCN(C(=O)c3ccc(CNc4c(N5CCOCC5)c(=O)c4=O)cc3)CC2)cc1	3410 nM
Cc1ccc(C(=O)N/N=C(/CC(=O)c2cccs2)C(F)(F)F)cc1	2100 nM
CCOC(=O)CSc1ncnc2c1cnn2-c1ccc(C)cc1C	4490 nM
O=C(CSc1nc2ccccc2c(=O)[nH]1)NC1CCCCC1	70 nM
CC1CCCN(C(=O)c2ccc(CNc3c(N4CCCCC4)c(=O)c3=O)cc2)C1 (stereo not drawn)	2580 nM
CCOc1ccc(-c2cc(C)[n+](CCc3ccc(OC)c(OC)c3)c(-c3ccc(OCC)cc3)c2)cc1	660 nM
Cc1cccc(-c2oc3ccc(-c4ccc5c(c4)OCO5)cc3c2C#Cc2cncn2C)c1	1380 nM
CCOC(=O)CSc1ncnc2c1cnn2-c1ccc(C)cc1	10100 nM
Cc1cc(C)n2nc(N)c(N=Nc3ccccc3)c2n1	2490 nM
CCOC(=O)CSc1ncnc2c1nnn2-c1ccc(F)cc1	3640 nM
COC(=O)C1CC(=O)N(c2ccc(OCc3ccccc3Cl)cc2)C1 (stereo not drawn)	750 nM
CCOC(=O)CSc1ncnc2c1cnn2-c1ccccc1	13100 nM
COC(=O)c1cc(=O)n(-c2ccc(F)cc2)c(=Nc2ccc(F)cc2)s1	640 nM
c1ccc(/N=C2\N=C(Nc3ccccn3)c3ccccc32)nc1	170 nM
CCc1c(C)nc(SCC(=O)NC2CCCC2)[nH]c1=O	2250 nM
CC1CC(C)CN(C(=O)C2CCC(CNc3c(N4CCCCC4)c(=O)c3=O)CC2)C1 (stereo not drawn)	13300 nM
CCOC(=O)CNC(=O)[C@H](Cc1ccccc1)NC(=O)OCc1ccccc1 (Cbz-Phe-Gly-OEt)	2150 nM
O=C(c1ccc(CNc2c(N3CCCC3)c(=O)c2=O)cc1)N1CC=C(c2ccccc2)CC1	2520 nM
S=c1nc[nH]c2nc[nH]c12	1480 nM

Compound	IC50
O=C(NCC(c1cccs1)N1CCOCC1)c1cc([N+](=O)[O-])cc([N+](=O)[O-])c1 (stereo not drawn)	410 nM
O=C(CSc1nc2ccccc2c(=O)[nH]1)NCc1ccc(Cl)cc1	630 nM and 2190 nM
O=C(CSc1nc2c(c(=O)[nH]1)CCC2)Nc1ccc(F)cc1	17100 nM
Cc1ccc(NC(=O)COC(=O)CCc2c[nH]c3ccccc23)cc1[N+](=O)[O-]	1920 nM
CC1CCN(C(=O)C2CCN(c3nnc(-n4cccc4)s3)CC2)CC1	1640 nM
Cc1ccc2c(c1)c(C1=c3ccccc3=NC1=O)c(O)n2C	1460 nM
CCOC(=O)COc1ccc(/C=C2\NC(=S)N(CC)C2=O)cc1	2620 nM
CCc1c(C)nc(SCC(=O)Nc2ccc3c(c2)OCCO3)[nH]c1=O	19400 nM
CCOC(=O)CSc1ncnc2c1cnn2-c1ccc(Cl)cc1	4980 nM
Cc1cccc(/C=C/C(=O)c2ccc([N+](=O)[O-])o2)c1	450 nM
CNc1nc(SCc2ccccc2Cl)nc2c1CCCC2	1080 nM
Nc1c(C(=O)NC2CCCCC2)nsc1C(=O)OCC(=O)NC1CCCCC1	1230 nM
COC(=O)C(C)Oc1ccc(-c2nccc(-c3ccccn3)n2)cc1 (stereo not drawn)	2640 nM
O=C1C(Br)=Cc2cccc3cccc1c23	350 nM
COC(=O)CCc1nc2c(C#N)c(-c3ccc(Cl)cc3)ccn2n1	2540 nM
CC1CC(C)CN(C(=O)c2ccc(CNc3c(N4CCCC4)c(=O)c3=O)cc2)C1 (stereo not drawn)	6340 nM
CC(C)CCNC(=O)CSc1nc2ccccc2c(=O)[nH]1	2310 nM
O=C(c1ccc(CNc2c(N3CCCC3)c(=O)c2=O)cc1)N1CCc2ccccc2C1	4370 nM
CC(C)NC(=O)c1sc(=S)n2c1[nH]c(=O)c1ccc(C(=O)NCCc3ccc(Cl)cc3)cc12	310 nM
CC1CCN(C(=O)c2ccc(CNc3c(N4CCCC4)c(=O)c3=O)cc2)CC1	5850 nM
COc1ccc(-n2nnc3c(SCC(=O)OCc4ccccc4)ncnc32)cc1	2810 nM
CC(C)OC(=O)CSc1ncnc2c1cnn2-c1ccccc1	17900 nM

Compound	IC50
CC(=O)c1ccc(NC(=O)c2ccc(CNc3c(N4CCOCC4)c(=O)c3=O)cc2)cc1	20000 nM
Cc1cc(Br)ccc1NC(=O)c1cnc(N2CCN(c3ccccn3)CC2)c2ccccc12	1250 nM
Cc1ccc(NC(=O)C2C3/C=C\CCCCC32)cc1C (stereo not drawn)	1720 nM
CCOC1OC(=O)C(Cl)=C1Nc1ccccc1C (stereo not drawn)	2260 nM
COC(=O)C(C)Sc1ncnc2c1nnn2-c1ccc(F)cc1 (stereo not drawn)	2420 nM
CCC(Sc1ncnc2c1nnn2-c1ccc(F)cc1)C(=O)OC (stereo not drawn)	11900 nM
CC(=NCc1ccc2c(c1)OCO2)C1=C(O)c2ccccc2C1=O	330 nM
Cc1nc(SCC(=O)NC2CCCCC2)[nH]c(=O)c1C	670 nM and 2390 nM
O=C(/C=C/c1ccccc1)N1CCN(CCN2C(=O)c3cccc4cccc(c34)C2=O)CC1	2070 nM
COC(=O)C(C)Oc1ccc(Cc2ncc(C(F)(F)F)cc2Cl)cc1 (stereo not drawn)	2620 nM
CCOC(=O)COn1c2c(c3c4no[n+]([O-])c4ccc31)CCCC2	1850 nM
Cc1nn2c(NCc3ccccn3)cc(C(C)C)nc2c1-c1ccccc1	1970 nM
O=C(/C=C\c1cccs1)N1CCN(Cc2ccc3c(c2)OCO3)CC1	360 nM
O=C(c1ccc(CNc2c(N3CCOCC3)c(=O)c2=O)cc1)N1CC=C(c2ccccc2)CC1	1110 nM
COc1cc(NC(=O)C/C(C)=N/NC(=O)c2ccccn2)c(OC)cc1Cl	2780 nM
CCc1ccc(/C=C2/C(=O)N(C)C(=S)N2CC(=O)OC)s1	1910 nM
CCOC(=O)c1ccc(NC(=O)Cn2ncc(Cl)c(Cl)c2=O)cc1	440 nM
CC1CCCN(C(=O)C2CCC(CNc3c(N4CCCCC4)c(=O)c3=O)CC2)C1 (stereo not drawn)	19000 nM
CCC(C)Nc1ccc(NC(C)CC)cc1 (stereo not drawn)	1270 nM
CCOC(=O)C(C)Sc1ncnc2c1nnn2-c1ccc(F)cc1 (stereo not drawn)	1200 nM and 4550 nM
Cc1nc(SCC(=O)NC2CCCC2)[nH]c(=O)c1C	9960 nM
COC(=O)CSc1ncnc2c1cnn2-c1ccc(C)cc1C	4500 nM

same assay, conditions: measured here: 90% growth inhibition

Compound	IC90 [nM]
O=C(NCCc1ccc(Cl)cc1)c1ccc(CNc2c(N3CCOCC3)c(=O)c2=O)cc1	6950
Cc1ccc2ccc3ccc(C)nc3c2n1	780
CC[N+](C)(CC)CCCCOc1ccc2c(c1)C(=O)c1cc(OCCCC[N+](C)(CC)CC)ccc1-2	2130
COc1ccc(N2CCN(C(=O)c3ccc(CNc4c(N5CCOCC5)c(=O)c4=O)cc3)CC2)cc1	> 25000
Cc1ccc(C(=O)N/N=C(/CC(=O)c2cccs2)C(F)(F)F)cc1	2810
CCOC(=O)CSc1ncnc2c1cnn2-c1ccc(C)cc1C	6980
O=C(CSc1nc2ccccc2c(=O)[nH]1)NC1CCCCC1	130
CC1CCCN(C(=O)c2ccc(CNc3c(N4CCCCC4)c(=O)c3=O)cc2)C1 (stereo not drawn)	> 25000
CCOc1ccc(-c2cc(C)[n+](CCc3ccc(OC)c(OC)c3)c(-c3ccc(OCC)cc3)c2)cc1	1030
Cc1cccc(-c2oc3ccc(-c4ccc5c(c4)OCO5)cc3c2C#Cc2cncn2C)c1	1860
CCOC(=O)CSc1ncnc2c1cnn2-c1ccc(C)cc1	> 25000
Cc1cc(C)n2nc(N)c(N=Nc3ccccc3)c2n1	3560

— PubChem BioAssay AID504645 (Southern Research Specialized Biocontainment Screening …, 2011)
